{"source": "patent US10369229B2", "about": "“Methods and compositions for liposomal formulation of antigens and uses thereof” (priority 2009, dated 2019)", "key": {"[1]": {"test_system": "N-MPR (2F5 epitope of HIV-1 gp41 MPR)", "conditions": "BALB/C mice, Day 28 sera", "quoted_text": "All animal procedures were conducted in accordance with the policies and approval of the appropriate Institutional Animal Care and Use Committee. 8 week-old female BALB/C mice (Jackson Laboratories, Bar Harbor, Me.) were housed in a pathogen-free barrier facility. Animals received subcutaneous immunizations in alternating hind hocks on Days 0 and 14. Each injection contained 50 μg lipopeptide, 25 μg MPL and 1 μmol lipid vehicle in 50 μL sterile phosphate-buffered saline. On Day 28 blood was collected from the submandibular vein for characterization of antibody responses. Cells were removed by centrifugation at 14,000 rpm for 15 min (5415C, Eppendorf, Westbury, N.Y.) and sera were stored at −80° C. until use.\nELISAs were developed to quantify binding of immune sera to peptides, lipids, and recombinant gp140. Peptide ELISAs were conducted using MPR peptides biotinylated as described above and captured on 96 well streptavidin-coated plates (#15120, Pierce, Rockford, Ill.). Assays were performed according to the manufacturer's instructions with modifications. […] The reaction was stopped with 0.5M H2SO4 and the yellow product was monitored at 450 nm (Optimax, Molecular Devices, Sunnyvale, Calif.). […] IgG1/IgG2a ratios were calculated as an average of optical density quotients measured at 3 dilutions after subtraction of background values. […]"}, "[2]": {"test": "Circular dichroism of liposomal lipopeptides (percent helicity)", "assay_type": "physicochemical", "conditions": "formulated in liposomes; estimated from θ222", "method": "Liposomal lipopeptide samples were prepared as described above with the following modifications. Stock liposome solutions containing 5 mM carrier lipid and 500 μM lipopeptide were prepared in 10 mM phosphate, pH 7.4. To minimize light scattering, liposomes were prepared by bath sonication under argon until a size of less than 100 nm was obtained. For analysis, samples were diluted to 5 μM lipopeptide in 10 mM phosphate buffer containing 1 mM carrier lipid. Spectra were obtained with a J-715 spectrapolarimeter (Jasco, Easton, Md.) and data were processed using Jasco software. Data were acquired in continuous scanning mode with a pathlength of 1 cm, 0.1 nm interval and scan speed of 1 nm/s. Each spectrum represents an average of two scans. A background spectrum of “empty” liposomes in buffer was subtracted from each sample spectrum. Percent helicity was estimated from θ222 according to the method of Taylor and Kaiser."}}}
{"substance": "N-MPR: peptide corresponding to the 2F5 epitope of HIV-1 gp41 MPR (SEQ ID NO: 2) (NEQELLELDKWASLWNGGK)", "values": [{"measurement": "mice with detected anti-peptide response", "setting": "[1]", "value": "2 of 5"}, {"measurement": "helicity (helical content)", "setting": "[2]", "value": 20.7, "unit": "%"}]}
